The values below come from publication PMC4586513, “Mitochondrial ADP/ATP exchange inhibition: a novel off-target mechanism underlying ibipinabant-induced myotoxicity” (Scientific Reports, 2015).

Each structure is given as a SMILES string.

In this experiment the target is T1, adenine nucleotide translocase 1 (ANT1) (Bos taurus, UniProt P02722).
T1 construct: gene SLC25A4; native ANT in isolated bovine heart mitochondria
T1 sequence (P02722 2-298): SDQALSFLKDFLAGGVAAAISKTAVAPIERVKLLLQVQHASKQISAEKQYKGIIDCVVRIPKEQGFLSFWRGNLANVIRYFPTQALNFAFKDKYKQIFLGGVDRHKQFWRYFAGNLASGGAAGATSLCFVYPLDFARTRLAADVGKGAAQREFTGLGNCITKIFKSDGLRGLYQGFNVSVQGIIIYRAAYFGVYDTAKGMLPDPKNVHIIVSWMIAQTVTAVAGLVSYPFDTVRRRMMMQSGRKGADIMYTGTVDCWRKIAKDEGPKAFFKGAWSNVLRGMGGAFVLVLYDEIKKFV
In words: […]ADP uptake in isolated bovine heart mitochondria with […] atractyloside; import decreased to […]. The experiment is classed as cell-based.

`C=C1[C@@H]2CC[C@H]3[C@]4(C)C[C@H](O[C@@H]5O[C@H](CO)[C@@H](OS(=O)(=O)O)[C@H](OS(=O)(=O)O)[C@H]5OC(=O)CC(C)C)C[C@@H](C(=O)O)[C@H]4CC[C@]3(C2)[C@H]1O` [atractyloside] showed a remaining activity at 50 µM of 13.8 ± 1.1%.

As a reminder, the remaining activity is the signal under treatment as a percentage of the control signal. Lower therefore signals a large loss of activity.
